Source: patent US20170135322A1, “A BIOCONTROL COMBINATION AND METHOD FOR IMPROVING QUALITY OF SHELLED EGGS” (NOBACTRA ISRAEL Ltd., priority 2014, published 2017)
Where “and” joins values, the source holds several entries; their conditions need not be identical. Identical values can stand only once.

Experiments:
Experiment in all cases: Effect on fungi growth (Example III)
Assay type in all cases: cell-based
[1] = system: Fusarium Spp. (isolate #1); conditions: additive 10%, without biocontrol formulation, initial diameter 0.5 cm
Source text: (§1) The effect of various additives on fungi growth was examined. The fungi examined included two isolates of Fusarium Spp. (isolate #1 and isolate #2), sclerotium, and trychoderma.
(§2) The larger the colony's dimension (diameter) in the petri dish, the lower is the inhibitory effect of the additive. The initial diameter of the colony before treatment was 0.5 cm.

sclerotium = conditions: additive 10%, without biocontrol formulation, initial diameter 0.5 cm
Source text: as §1, §2

[2] = system: Fusarium Spp. (isolate #2); conditions: additive 10%, without biocontrol formulation, initial diameter 0.5 cm
Source text: as §1, §2

trychoderma = conditions: additive 10%, without biocontrol formulation; initial diameter 0.5 cm
Source text: as §1, §2

Compound: O=C([O-])O.[K+] [Potassium bicarbonate, potassium becarbonate]
- colony size (diameter) [1]: 1.6 cm and 1.5 cm and 2.0 cm and 1.8 cm
- colony size (diameter) (sclerotium): 0.5 cm
- colony size (diameter) [2]: 1.3 cm and 1.2 cm
- colony size (diameter) (trychoderma): 0.5 cm

Compound: O.O.O.O.O.O.O.O=S(=O)([O-])[O-].[Mg+2] [Magnesium sulphate hepta hydrate, magnesiumsulphate hepta hydrate]
- colony size (diameter) ([1]; hydrate): 3.2 cm and 3.1 cm
- colony size (diameter) (sclerotium; hydrate): 3.0 cm and 2.7 cm and 2.5 cm and 2.2 cm
- colony size (diameter) ([2]; hydrate): 3.0 cm and 3.1 cm
- colony size (diameter) (trychoderma): 0.5 cm

Compound: O=C([O-])O.[Na+] [Sodium bicarbonate, sodium bicarbonate]
- colony size (diameter) [1]: 1.0 cm and 1.1 cm
- colony size (diameter) (sclerotium): 0.5 cm
- colony size (diameter) [2]: 0.5 cm
- colony size (diameter) (trychoderma): 0.5 cm
